Like-named read-outs stand apart in the source and are kept apart here.
How the values were obtained:
[1] = biological target: T1, α-glucosidase from baker's yeast (Saccharomyces cerevisiae, UniProt P53341); test: In vitro α-glucosidase inhibition assay (PNPG substrate, absorbance at 405 nm); assay type: biochemical
Description: In this assay, α-glucosidase from baker’s yeast has been selected and used in this model according to the procedure described in the previous study with a slight modification. The activity of α-glucosidase was determined by monitoring p-nitrophenol (PNP) released from p-nitrophenol-α-D-glycopyranoside (PNPG) at 405 nm. All examined samples of UA analogues were dissolved in DMSO to generate the stock solution, with the concentrations ranging from 5 μM to 4000 μM. During the enzyme inhibitory assay, each sample’s stock solution was diluted with 0.1 M phosphate buffer solution (pH = 6.8), and the final concentration of enzyme solution was 0.1 U/mL. Then 10 min pre-incubation at 37 °C was conducted. After that, the substrate (PNPG, 1 mmol/L) was added to initiate the reaction. The reaction was incubated for 30 min at 37 °C before it was terminated by adding 1 mol/L Na2CO3 solution, and the optical density value was measured at 405 nm by using a Multimodel Plate Reader (Infinite 200). Each assay was performed three times.
The enzyme activity was measured at a fixed substrate concentration, in which a series of sample concentrations were introduced. The IC50 value was […] relative to a control assay with no inhibitor added.
The α-glucosidase inhibition assay was performed according to the method of Worawalai[32] with a slight modification. The α-glucosidase enzyme (0.1 U/mL) and substrate (1 mM p-nitrophenyl-α-D-glucopyranoside) were dissolved in 0.1 M phosphate buffer, pH 6.8. 10 μL of each synthesized analogue (1 mg/mL in DMSO) was pre-incubated with 8 μL of α-glucosidase at 37 °C for 10 min. A 100 μL of substrate solution was then added to the reaction mixture, which was further incubated at 37 °C for 30 min. Then, the reaction was terminated by adding 100 μL of 1 M Na2CO3 solution. Enzymatic activity was quantified by measuring the absorbance at 405 nm with a use of a Multimodel Plate Reader (Infinite 200). The percentage of inhibition was calculated by using [(A0 − A1)/A0] × 100%, where A0 was the absorbance without the sample, and A1 was the absorbance with the sample. The IC50 value was determined from a plot of the percentage of inhibition versus the sample concentration.

[2] = biological target: T1, α-glucosidase from baker's yeast; parameters: method as in PMID 26406581; conditions: UA hydroxyl group oxidized into ketone; cited from earlier work
[3] = UA-O and analogues UA-O-a~UA-O-j (Table 2), enzyme 0.1 U/mL, PNPG 1 mM, pH 6.8, 37 °C, mean ± SD, read-out: IC50

T1 sequence (P53341 whole entry): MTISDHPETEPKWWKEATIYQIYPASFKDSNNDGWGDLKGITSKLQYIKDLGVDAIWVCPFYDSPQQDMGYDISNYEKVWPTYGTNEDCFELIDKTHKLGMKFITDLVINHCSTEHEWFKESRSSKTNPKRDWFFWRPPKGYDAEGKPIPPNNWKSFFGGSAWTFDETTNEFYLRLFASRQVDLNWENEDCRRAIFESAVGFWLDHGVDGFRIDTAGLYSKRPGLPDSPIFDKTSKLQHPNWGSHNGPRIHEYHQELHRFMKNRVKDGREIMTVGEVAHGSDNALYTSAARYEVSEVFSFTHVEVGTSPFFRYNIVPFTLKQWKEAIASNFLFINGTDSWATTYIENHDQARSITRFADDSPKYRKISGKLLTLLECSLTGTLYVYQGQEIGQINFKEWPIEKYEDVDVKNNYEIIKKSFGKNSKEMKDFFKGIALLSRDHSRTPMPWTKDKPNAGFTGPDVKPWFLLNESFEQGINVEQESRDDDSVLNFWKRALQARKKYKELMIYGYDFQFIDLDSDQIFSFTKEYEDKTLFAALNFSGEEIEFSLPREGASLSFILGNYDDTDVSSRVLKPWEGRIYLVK

**Q.** For `C[C@@H]1CC[C@]2(C(=O)O)CC[C@]3(C)C(=CCC4[C@@]5(C)CC[C@H](OC(=O)c6ccccc6)C(C)(C)C5CC[C@]43C)C2[C@H]1C` (stereo partly drawn) [UA-01], which IC50 [1] is on record?
**A.** 4.98 ± 0.21 µM

**Q.** With “(1S,2R,4R,6aS,6bR,12aR)-1,2,6a,6b,9,9,12a-heptamethyl-11-((Z)-4-nitrobenzylidene)-10-oxo-1,2,3,4,4a,5,6,6a,6b,7,8,8a,9,10,11,12,12a,12b,13,14b-icosahydropicene-4-carboxylic acid [UA-O-d]” as the molecule, how does the IC50 [1, 3] read?
**A.** 1.49 ± 0.14 µM

**Q.** For “(1S,2R,4R,6aS,6bR,12aR,Z)-1,2,6a,6b,9,9,12a-heptamethyl-10-oxo-11-((E) -3-phenylallylidene)-1,2,3,4,4a,5,6,6a,6b,7,8,8a,9,10,11,12,12a,12b,13,14b-icosahydropicene-4-carboxylic acid [UA-O-b]”, which IC50 [1, 3] is on record?
**A.** 10.3 ± 0.55 µM

**Q.** With `C[C@@H]1CC[C@]2(C(=O)O)CC[C@]3(C)C(=CCC4[C@@]5(C)CC[C@H](OC(=O)C(Cl)Cl)C(C)(C)C5CC[C@]43C)C2[C@H]1C` (stereo partly drawn) [UA-03] as the molecule, how does the IC50 [1] read?
**A.** 6.72 ± 0.33 µM

**Q.** For `C[C@@H]1CC[C@]2(C(=O)O)CC[C@]3(C)C(=CCC4[C@@]5(C)CC[C@H](O)C(C)(C)C5CC[C@]43C)C2[C@H]1C` (stereo partly drawn) [UA, (1S,2R,4aS,6aS,6bR,10S,12aR) -10-hydroxy-1,2,6a,6b,9,9,12a-heptamethyl-1,2,3,4,4a,5,6,6a,6b,7,8,8a,9,10,11,12,12a,12b,13,14b-icosahydropicene-4a-carboxylic acid, reference compound], which IC50 [1] is on record?
**A.** 5.08 ± 0.7 µM

**Q.** Which IC50 [1, 3] does the source give for “(1S,2R,4R,6aS,6bR,12aR)-1,2,6a,6b,9,9,12a-heptamethyl-10-oxo-11-((Z)-4-(trifluoromethyl) benzylidene)-1,2,3,4,4a,5,6,6a,6b,7,8,8a,9,10,11,12,12a,12b,13,14b-icosahydropicene-4-carboxylic acid [UA-O-i]” here?
**A.** 0.71 ± 0.04 µM

**Q.** Which IC50 [1, 3] does the source give for “(1S,2R,4R,6aS,6bR,12aR,Z)-1,2,6a,6b,9,9,12a-heptamethyl-10-oxo-11-(thiazol-2-ylmethylene)-1,2,3,4,4a,5,6,6a,6b,7,8,8a,9,10,11,12,12a,12b,13,14b-icosahydropicene-4-carboxylic acid [UA-O-h]” here?
**A.** 3.32 ± 0.17 µM

**Q.** With “(1S,2R,4R,6aS,6bR,12aR,Z)-1,2,6a,6b,9,9,12a-heptamethyl-10-oxo-11-(pyrazin-2-ylmethylene)-1,2,3,4,4a,5,6,6a,6b,7,8,8a,9,10,11,12,12a,12b,13,14b-icosahydropicene-4-carboxylic acid [UA-O-g]” as the molecule, how does the IC50 [1, 3] read?
**A.** 7.87 ± 0.34 µM

**Q.** For `C[C@@H]1CC[C@]2(C(=O)O)CC[C@]3(C)C(=CCC4[C@@]5(C)CC[C@H](OC(=O)c6ccco6)C(C)(C)C5CC[C@]43C)C2[C@H]1C` (stereo partly drawn) [UA-02], which IC50 [1] is on record?
**A.** 2.51 ± 0.02 µM

**Q.** Which IC50 [1, 3] does the source give for “(1S,2R,4R,6aS,6bR,12aR,Z)-1,2,6a,6b,9,9,12a-heptamethyl-10-oxo-11-((6-(trifluoromethyl) pyridin-3-yl) methylene)-1,2,3,4,4a,5,6,6a,6b,7,8,8a,9,10,11,12,12a,12b,13,14b-icosahydropicene-4-carboxylic acid [UA-O-f]” here?
**A.** 4.87 ± 0.41 µM

**Q.** With “(1S,2R,4R,6aS,6bR,10S,12aR)-1,2,6a,6b,9,9,12a-heptamethyl-10-((4-methylpiperazine-1-carbonyl) oxy)-1,2,3,4,4a,5,6,6a,6b,7,8,8a,9,10,11,12,12a,12b,13,14b-icosahydropicene-4-carboxylic acid [UA-05]” as the molecule, how does the IC50 ([1]; UA ester derivatives (Table 1), enzyme 0.1 U/mL, PNPG 1 mM, pH 6.8, 37 °C, mean ± SD, read-out: IC50) read?
**A.** 15.2 ± 0.47 µM

**Q.** For “(1S,2R,4R,6aS,6bR,12aR)-11-((Z)-3-chlorobenzylidene)-1,2,6a,6b,9,9,12a-heptamethyl-10-oxo-1,2,3,4,4a,5,6,6a,6b,7,8,8a,9,10,11,12,12a,12b,13,14b-icosahydropicene-4-carboxylic acid [UA-O-e]”, which IC50 [1, 3] is on record?
**A.** 3.22 ± 0.78 µM

**Q.** Which IC50 [1, 3] does the source give for “(1S,2R,4R,6aS,6bR,12aR)-1,2,6a,6b,9,9,12a-heptamethyl-11-((Z)-4-methylbenzylidene)-10-oxo-1,2,3,4,4a,5,6,6a,6b,7,8,8a,9,10,11,12,12a,12b,13,14b-icosahydropicene-4-carboxylic acid [UA-O-j]” here?
**A.** 1.27 ± 0.2 µM

**Q.** For `C[C@@H]1CC[C@]2(C(=O)O)CC[C@]3(C)C(=CCC4[C@@]5(C)CCC(=O)C(C)(C)C5CC[C@]43C)C2[C@H]1C` (stereo partly drawn) [UA-O], which IC50 [2] is on record?
**A.** 2.47 ± 0.14 µM

**Q.** What about the IC50 [1, 3] of the same molecule?
**A.** 2.47 ± 0.14 µM

**Q.** Which IC50 [1] does the source give for `C[C@@H]1CC[C@]2(C(=O)O)CC[C@]3(C)C(=CCC4[C@@]5(C)CC[C@H](OC(=O)c6ccc(Br)cc6F)C(C)(C)C5CC[C@]43C)C2[C@H]1C` (stereo partly drawn) [UA-04] here?
**A.** 3.94 ± 0.1 µM

**Q.** With “(1S,2R,4R,6aS,6bR,12aR)-11-((Z)-benzylidene)-1,2,6a,6b,9,9,12a-heptamethyl-10-oxo-1,2,3,4,4a,5,6,6a,6b,7,8,8a,9,10,11,12,12a,12b,13,14b-icosahydropicene-4-carboxylic acid [UA-O-a]” as the molecule, how does the IC50 [1, 3] read?
**A.** 1.17 ± 0.09 µM

**Q.** With “(1S,2R,4R,6aS,6bR,12aR,Z)-11-((E)-3-(4-fluorophenyl) allylidene)-1,2,6a,6b,9,9,12a-heptamethyl-10-oxo-1,2,3,4,4a,5,6,6a,6b,7,8,8a,9,10,11,12,12a,12b,13,14b-icosahydropicene-4-carboxylic acid [UA-O-c]” as the molecule, how does the IC50 [1, 3] read?
**A.** 7.49 ± 0.29 µM

Reference: PMC5372089, “Synthesis and biological evaluation of novel ursolic acid analogues as potential α-glucosidase inhibitors” (Scientific Reports, 2017)
